From patent US8258114B2, “Modulation of glucose-6-phosphatase translocase expression” (Isis Pharmaceuticals, Inc., priority 2004, dated 2012)
Oligonucleotides are written 5' to 3', each unit as a sugar letter and its base; * is a phosphorothioate linkage, no mark a phosphodiester; rarer units and linkages stand in square brackets, end groups in braces. Plain capitals give the bases only. e = 2'-O-(2-methoxyethyl) (MOE); [5mC] = 5-methylcytosine; d = 2'-deoxy (DNA)

Columns and labels:
[1] = system: human glucose-6-phosphatase translocase mRNA; assay: Antisense inhibition of human glucose-6-phosphatase translocase mRNA in HepG2 cells (Table 11); format: cell-based; design: concentration or dose not given beside the values; conditions: LIPOFECTIN, mRNA by real-time PCR
Experimental: The human hepatoblastoma cell line HepG2 was obtained from the American Type Culture Collection (Manassas, Va.). HepG2 cells were routinely cultured in Eagle's MEM supplemented with 10% fetal bovine serum, 1 mM non-essential amino acids, and 1 mM sodium pyruvate (Invitrogen Life Technologies, Carlsbad, Calif.). Cells were routinely passaged by trypsinization and dilution when they reached approximately 90% confluence. Multiwell culture plates are prepared for cell culture by coating with a 1:100 dilution of type 1 rat tail collagen (BD Biosciences, Bedford, Mass.) in phosphate-buffered saline. The collagen-containing plates were incubated at 37° C. for approximately 1 hour, after which the collagen was removed and the wells were washed twice with phosphate-buffered saline. Cells were seeded into 96-well plates (Falcon-Primaria #353872, BD Biosciences, Bedford, Mass.) at a density of approximately 8,000 cells/well for use in oligomeric compound transfection experiments.
When cells reached 65-75% confluency, they were treated with oligonucleotide. Oligonucleotide was mixed with LIPOFECTIN™ Invitrogen Life Technologies, Carlsbad, Calif.) in Opti-MEM™-1 reduced serum medium (Invitrogen Life Technologies, Carlsbad, Calif.) to achieve the desired concentration of oligonucleotide and a LIPOFECTIN™ concentration of 2.5 or 3 μg/mL per 100 nM oligonucleotide. This transfection mixture was incubated at room temperature for approximately 0.5 hours. For cells grown in 96-well plates, wells were washed once with 100 μL OPTI-MEM™-1 and then treated with 130 μL of the transfection mixture. Cells grown in 24-well plates or other standard tissue culture plates are treated similarly, using appropriate volumes of medium and oligonucleotide. Cells are treated and data are obtained in duplicate or triplicate. After approximately 4-7 hours of treatment at 37° C., the medium containing the transfection mixture was replaced with fresh culture medium. Cells were harvested 16-24 hours after oligonucleotide treatment.
(§1) Quantitation of glucose 6-phosphatase translocase mRNA levels was accomplished by real-time quantitative PCR using the ABI PRISM™ 7600, 7700, or 7900 Sequence Detection System (PE-Applied Biosystems, Foster City, Calif.) according to manufacturer's instructions.
(§2) Prior to quantitative PCR analysis, primer-probe sets specific to the target gene being measured were evaluated for their ability to be “multiplexed” with a GAPDH amplification reaction. After isolation the RNA is subjected to sequential reverse transcriptase (RT) reaction and real-time PCR, both of which are performed in the same well. RT and PCR reagents were obtained from Invitrogen Life Technologies (Carlsbad, Calif.). […] The RT reaction was carried out by incubation for 30 minutes at 48° C. Following a 10 minute incubation at 95° C. to activate the PLATINUM® Taq, 40 cycles of a two-step PCR protocol were carried out: 95° C. for 15 seconds (denaturation) followed by 60° C. for 1.5 minutes (annealing/extension).
(§3) Gene target quantities obtained by RT, real-time PCR were normalized using either the expression level of GAPDH, a gene whose expression is constant, or by quantifying total RNA using RiboGreen™ (Molecular Probes, Inc. Eugene, Oreg.). GAPDH expression was quantified by RT, real-time PCR, by being run simultaneously with the target, multiplexing, or separately. Total RNA was quantified using RiboGreen™ RNA quantification reagent (Molecular Probes, Inc. Eugene, Oreg.).
A series of oligomeric compounds was designed to target different regions of human glucose-6-phosphatase translocase, using published sequences cited in Table 1. All compounds in Table 4 are chimeric oligonucleotides (“gapmers”) 20 nucleotides in length, composed of a central “gap” region consisting of 10 2′-deoxynucleotides, which is flanked on both sides (5′ and 3′) by five-nucleotide “wings”. The wings are composed of 2′-O-(2-methoxyethyl) nucleotides, also known as 2′-MOE nucleotides. […]

[2] = system: mouse glucose-6-phosphatase translocase mRNA; assay: Antisense inhibition of mouse glucose-6-phosphatase translocase mRNA in primary mouse hepatocytes, 50 nM (Table 5); format: cell-based; conditions: 50 nM oligonucleotide, mRNA by real-time PCR, normalized with RIBOGREEN
Experimental: Primary mouse hepatocytes were prepared from CD-1 mice purchased from Charles River Labs. Primary mouse hepatocytes were routinely cultured in Hepatocyte Attachment Media supplemented with 10% fetal bovine serum (Invitrogen Life Technologies, Carlsbad, Calif.), 250 nM dexamethasone, and 10 nM bovine insulin (Sigma-Aldrich, St. Louis, Mo.). Cells were seeded into 96-well plates (Falcon-Primaria #353872, BD Biosciences, Bedford, Mass.) at a density of approximately 4,000-6,000 cells/well for use in oligomeric compound transfection experiments.
as §1, §2, §3
A series of oligomeric compounds was designed to target different regions of mouse glucose-6-phosphatase translocase, using published sequences cited in Table 1. All compounds in Table 5 are chimeric oligonucleotides (“gapmers”) 20 nucleotides in length, composed of a central “gap” region consisting of 10 2′-deoxynucleotides, which is flanked on both sides (5′ and 3′) by five-nucleotide “wings”. The wings are composed of 2′-O-(2-methoxyethyl) nucleotides, also known as 2′-MOE nucleotides. The internucleoside (backbone) linkages are phosphorothioate throughout the oligonucleotide. All cytidine residues are 5-methylcytidines. The compounds were analyzed for their effect on gene target mRNA levels by quantitative real-time PCR as described in other examples herein, using the following primer-probe set designed to hybridize to mouse glucose-6-phosphatase translocase: • forward primer: […] (SEQ ID NO: 66) • reverse primer: CCATCCCAGCCATCATGAG (SEQ ID NO: 67) and the PCR probe was: FAM-[…]-TAMRA (SEQ ID NO: 68) where FAM is the fluorescent reporter dye and TAMRA is the quencher dye. Mouse target gene quantities were normalized by quantifying total RNA using RIBOGREEN™.
Data are from experiments in which primary mouse hepatocytes were treated with 50 nM of the antisense oligonucleotides of the present invention. A reduction in expression is expressed as percent inhibition in Table 5. If present, “N.D.” indicates “not determined”. The target regions to which these oligomeric compounds are inhibitory are herein referred to as “validated target segments.”

Sequence	% Inhib [1] [%]	% Inhib [2] [%]
ACAACCACACACAGTGCCCC (eA*e[5mC]*eA*eA*e[5mC]*d[5mC]*dA*d[5mC]*dA*d[5mC]*dA*d[5mC]*dA*dG*dT*eG*e[5mC]*e[5mC]*e[5mC]*e[5mC]; antisense) [ISIS 359519]	53	–
ACAGCTCCCAATACCAGGAT (eA*e[5mC]*eA*eG*e[5mC]*dT*d[5mC]*d[5mC]*d[5mC]*dA*dA*dT*dA*d[5mC]*d[5mC]*eA*eG*eG*eA*eT; antisense) [ISIS 359537]	93	–
ACATCAGCAGGTTCATTGTG (eA*e[5mC]*eA*eT*e[5mC]*dA*dG*d[5mC]*dA*dG*dG*dT*dT*d[5mC]*dA*eT*eT*eG*eT*eG; antisense) [ISIS 359523]	43	–
ACCAAGTGCCAAACTGAGAT (eA*e[5mC]*e[5mC]*eA*eA*dG*dT*dG*d[5mC]*d[5mC]*dA*dA*dA*d[5mC]*dT*eG*eA*eG*eA*eT; antisense) [ISIS 359509]	24	–
ACTCGGCCCATCTTGGTGCG (eA*e[5mC]*eT*e[5mC]*eG*dG*d[5mC]*d[5mC]*d[5mC]*dA*dT*d[5mC]*dT*dT*dG*eG*eT*eG*e[5mC]*eG; antisense) [ISIS 359548]	96	–
AGAGGAAGGAGACAACCACA (eA*eG*eA*eG*eG*dA*dA*dG*dG*dA*dG*dA*d[5mC]*dA*dA*e[5mC]*e[5mC]*eA*e[5mC]*eA; antisense) [ISIS 359521]	32	–
AGCAGGTTCATTGTGGATGA (eA*eG*e[5mC]*eA*eG*dG*dT*dT*d[5mC]*dA*dT*dT*dG*dT*dG*eG*eA*eT*eG*eA; antisense) [ISIS 359522]	91	–
AGCCAGGTTCATGCTGGTTG (eA*eG*e[5mC]*e[5mC]*eA*dG*dG*dT*dT*d[5mC]*dA*dT*dG*d[5mC]*dT*eG*eG*eT*eT*eG; antisense) [ISIS 359513]	62	–
ATGGCCCACCAAGTGCCAAA (eA*eT*eG*eG*e[5mC]*d[5mC]*d[5mC]*dA*d[5mC]*d[5mC]*dA*dA*dG*dT*dG*e[5mC]*e[5mC]*eA*eA*eA; antisense) [ISIS 359510]	38	–
CAAATACAGCTCCCAATACC (e[5mC]*eA*eA*eA*eT*dA*d[5mC]*dA*dG*d[5mC]*dT*d[5mC]*d[5mC]*d[5mC]*dA*eA*eT*eA*e[5mC]*e[5mC]; antisense) [ISIS 359538]	29	–
CAAGGAGCCCTTCTTGCCCT (e[5mC]*eA*eA*eG*eG*dA*dG*d[5mC]*d[5mC]*d[5mC]*dT*dT*d[5mC]*dT*dT*eG*e[5mC]*e[5mC]*e[5mC]*eT; antisense) [ISIS 359524]	56	–
CAGGCCAACCAGGAGCAGCC (e[5mC]*eA*eG*eG*e[5mC]*d[5mC]*dA*dA*d[5mC]*d[5mC]*dA*dG*dG*dA*dG*e[5mC]*eA*eG*e[5mC]*e[5mC]; antisense) [ISIS 359508]	68	–
CATGCTGGTTGACAGGATGG (e[5mC]*eA*eT*eG*e[5mC]*dT*dG*dG*dT*dT*dG*dA*d[5mC]*dA*dG*eG*eA*eT*eG*eG; antisense) [ISIS 359512]	43	–
CCAACCAGGAGCAGCCCAGA (e[5mC]*e[5mC]*eA*eA*e[5mC]*d[5mC]*dA*dG*dG*dA*dG*d[5mC]*dA*dG*d[5mC]*e[5mC]*e[5mC]*eA*eG*eA; antisense) [ISIS 359507]	49	–
CCAGCCCTCCAGCCAGGTTC (e[5mC]*e[5mC]*eA*eG*e[5mC]*d[5mC]*d[5mC]*dT*d[5mC]*d[5mC]*dA*dG*d[5mC]*d[5mC]*dA*eG*eG*eT*eT*e[5mC]; antisense) [ISIS 359516]	69	–
CCAGCGTGCTGCGCCAGCTG (e[5mC]*e[5mC]*eA*eG*e[5mC]*dG*dT*dG*d[5mC]*dT*dG*d[5mC]*dG*d[5mC]*d[5mC]*eA*eG*e[5mC]*eT*eG; antisense) [ISIS 359518]	47	–
CCAGGAGCAGCCCAGAAGAG (e[5mC]*e[5mC]*eA*eG*eG*dA*dG*d[5mC]*dA*dG*d[5mC]*d[5mC]*d[5mC]*dA*dG*eA*eA*eG*eA*eG; antisense) [ISIS 359506]	58	–
CCATACGAGGAGAAACCAAA (e[5mC]*e[5mC]*eA*eT*eA*d[5mC]*dG*dA*dG*dG*dA*dG*dA*dA*dA*e[5mC]*e[5mC]*eA*eA*eA; antisense) [ISIS 359542]	46	–
CCATCTTGGTGCGGATGTTT (e[5mC]*e[5mC]*eA*eT*e[5mC]*dT*dT*dG*dG*dT*dG*d[5mC]*dG*dG*dA*eT*eG*eT*eT*eT; antisense) [ISIS 359547]	91	–
CCCTCCAGCCAGGTTCATGC (e[5mC]*e[5mC]*e[5mC]*eT*e[5mC]*d[5mC]*dA*dG*d[5mC]*d[5mC]*dA*dG*dG*dT*dT*e[5mC]*eA*eT*eG*e[5mC]; antisense) [ISIS 359515]	62	–
CGAGGAGAAACCAAATACAG (e[5mC]*eG*eA*eG*eG*dA*dG*dA*dA*dA*d[5mC]*d[5mC]*dA*dA*dA*eT*eA*e[5mC]*eA*eG; antisense) [ISIS 359541]	41	–
CTGGTCACTGTTACCCGGAA (e[5mC]*eT*eG*eG*eT*d[5mC]*dA*d[5mC]*dT*dG*dT*dT*dA*d[5mC]*d[5mC]*e[5mC]*eG*eG*eA*eA; antisense) [ISIS 359533]	69	–
CTGGTTGACAGGATGGCCCA (e[5mC]*eT*eG*eG*eT*dT*dG*dA*d[5mC]*dA*dG*dG*dA*dT*dG*eG*e[5mC]*e[5mC]*e[5mC]*eA; antisense) [ISIS 359511]	55	–
GAAACCAAATACAGCTCCCA (eG*eA*eA*eA*e[5mC]*d[5mC]*dA*dA*dA*dT*dA*d[5mC]*dA*dG*d[5mC]*eT*e[5mC]*e[5mC]*e[5mC]*eA; antisense) [ISIS 359539]	38	–
GAACTGGCCCCAGTCAGTAC (eG*eA*eA*e[5mC]*eT*dG*dG*d[5mC]*d[5mC]*d[5mC]*d[5mC]*dA*dG*dT*d[5mC]*eA*eG*eT*eA*e[5mC]; antisense) [ISIS 359528]	45	–
TGCCTGGATCTGCTGAGCTG (eT*eG*e[5mC]*e[5mC]*eT*dG*dG*dA*dT*d[5mC]*dT*dG*d[5mC]*dT*dG*eA*eG*e[5mC]*eT*eG; antisense) [ISIS 148936]	–	39
TGTGCTCCAGCTATAGTGCT (eT*eG*eT*eG*e[5mC]*dT*d[5mC]*d[5mC]*dA*dG*d[5mC]*dT*dA*dT*dA*eG*eT*eG*e[5mC]*eT; antisense) [ISIS 148981]	–	59
